Test results taken from ChEMBL document CHEMBL1129058, “Indole inhibitors of human nonpancreatic secretory phospholipase A2. 2. Indole-3-acetamides with additional functionality” (J Med Chem, 1996).
Several values for one entry are separate records, joined by “and”; a condition that tells them apart may be missing. Identical values can stand only once.

Assays:
Cavia porcellus = organism: Cavia porcellus; test: Effective dose of compound against contraction of Guinea pig lung tissue with arachidonic acid.; assay type: functional
[1] = target: T1, Phospholipase A2, membrane associated (Homo sapiens) (UniProt P14555); test: Inhibitory activity against contraction of Guinea pig lung tissue induced by PLA2.; assay type: functional, tissue-based; details: Cavia porcellus, target entry is the homologue from another species
T1 sequence (whole entry): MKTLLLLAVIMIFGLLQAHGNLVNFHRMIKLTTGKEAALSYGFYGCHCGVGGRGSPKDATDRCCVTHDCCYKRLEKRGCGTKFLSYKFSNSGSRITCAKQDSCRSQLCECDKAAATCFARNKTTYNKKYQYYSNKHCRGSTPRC

[2] = target: T2, Phospholipase A2, membrane associated (Homo sapiens, UniProt P14555); test: Inhibition of human non-pancreatic secretory phospholipase A2 (PLA2) in a chromogenic assay
T2 sequence (P14555 whole entry): T1 sequence (whole entry)

| SMILES | ED50 (Cavia porcellus) [µM] | Kb [1] | IC50 [2] [nM] |
| --- | --- | --- | --- |
| Cc1c(CC(N)=O)c2cc(OCCCC(=O)O)ccc2n1Cc1ccccc1 | >30 | – | – |
| CCc1c(CC(N)=O)c2cc(OCCCC(=O)O)c(C)cc2n1Cc1ccccc1 | – | 206 nM | 33 |
| Cc1cc(OCCCC(=O)O)cc2c(CC(N)=O)c(C)n(Cc3ccccc3)c12 | – | – | 75 |
| CCc1c(CC(N)=O)c2cc(OCCCP(=O)(O)OC)ccc2n1Cc1ccccc1 | >10 | 340 nM | 40 |
| Cc1c(CC(=O)NN)c2cc(OCCCC(=O)O)ccc2n1Cc1ccccc1 | >30 | 2170 nM | 1020 |
| NC(=O)Cc1c(Br)n(Cc2ccccc2)c2ccc(OCCCP(=O)(O)O)cc12 [listing 1 of 3 here] | >10 | – | 33 |
| NC(=O)Cc1cn(Cc2ccccc2)c2ccc(OCCCC(=O)O)cc12 | – | – | 180 |
| Cc1c(CC(N)=O)c2c(OCC(=O)O)cccc2n1Cc1cccc(Cl)c1 | – | 190 nM | 52 |
| CCc1c(CC(N)=O)c2cc(SCCCC(=O)O)ccc2n1Cc1ccccc1 | – | 124 nM | 23 |
| NC(=O)Cc1c(C2CC2)n(Cc2ccccc2)c2ccc(OCCCC(=O)O)cc12 | – | – | 44 |
| COC(=O)COc1cccc2c1c(CC(N)=O)c(C)n2Cc1ccccc1 | – | – | 1380 |
| NC(=O)Cc1c(Br)n(Cc2ccccc2)c2ccc(OCCCC(=O)O)cc12 | >10 | 530 nM | 73 |
| Cc1c(CC(N)=O)c2ccc(OCCCC(=O)NN)cc2n1Cc1ccccc1 | – | – | 1270 |
| Cc1c(CC(=O)O)c2cc(OCCCC(=O)O)ccc2n1Cc1ccccc1 | – | – | 25900 |
| C=CCc1c(O)ccc2c1c(CC(N)=O)c(CC)n2Cc1ccccc1 | – | – | 143 |
| CCc1c(CC(N)=O)c2cc(OCCCP(=O)(O)O)ccc2n1Cc1cccc(Cl)c1 | – | 240 nM | – |
| Cc1c(CC(N)=O)c2cc(OCC(=O)O)ccc2n1Cc1ccccc1 | >30 | 8220 nM | 1790 |
| Cc1c(CC(N)=O)c2cc(OCCCC3=NNNN3)ccc2n1Cc1ccccc1 | – | – | 2450 |
| CCc1c(CC(N)=O)c2cc(OCCCP(=O)(O)O)c(C(C)C)cc2n1Cc1ccccc1 | – | 698 nM | 40 |
| Cc1c(CC(N)=O)c2c(OCC(=O)O)cccc2n1Cc1ccccc1 | >10 | – | – |
| NC(=O)Cc1c(Cl)n(Cc2ccccc2)c2ccc(OCCCC(=O)O)cc12 | >30 | 610 nM | 77 |
| CCc1c(CC(N)=O)c2cc(OCCCS(=O)(=O)O)ccc2n1Cc1ccccc1 | >10 | – | – |

| SMILES | ED50 (Cavia porcellus) [µM] | Kb [1] | IC50 [2] [nM] |
| --- | --- | --- | --- |
| Cc1c(CC(N)=O)c2cc(OCCCCC(=O)O)ccc2n1Cc1ccccc1 | >30 | 8800 nM | 1150 |
| CCc1c(CC(N)=O)c2cc(OCCCP(=O)(OC)OC)ccc2n1Cc1ccccc1 | – | – | 266 |
| CCc1c(CC(N)=O)c2cc(SCCCC(=O)O)c(C(C)C)cc2n1Cc1ccccc1 | – | – | 33 |
| Cc1c(CC(N)=O)c2c(OCP(=O)(O)O)cccc2n1Cc1ccccc1 | >10 | – | – |
| Cc1c(CC(N)=O)c2c(OCC(=O)O)cccc2n1Cc1ccccc1-c1ccccc1 | – | 140 nM | – |
| CCc1c(CC(N)=O)c2c(OCC(=O)O)cccc2n1Cc1ccccc1 | >3 | – | – |
| Cc1c(CC(N)=O)c2cc(CCCC(=O)O)ccc2n1Cc1ccccc1 | – | 332 nM | 155 |
| CCOC(=O)CCCCOc1ccc2c(CC(N)=O)c(C)n(Cc3ccccc3)c2c1 | >30 | 22500 nM | 306 |
| CCc1c(CC(N)=O)c2cc(SCCC(=O)O)ccc2n1Cc1ccccc1 | – | – | 59 |
| CCc1c(CC(N)=O)c2cc(OCc3ccccc3C(=O)O)ccc2n1Cc1ccccc1 | – | – | 555 |
| Cc1c(CC(N)=O)c2cc(OCCC(=O)O)ccc2n1Cc1ccccc1 | >30 | 3760 nM | 527 |
| CCc1c(CC(N)=O)c2cc(SCCCC(=O)O)c(C)cc2n1Cc1ccccc1 | – | – | 22 |
| CCc1c(CC(N)=O)c2cc(OCCCC(=O)O)ccc2n1Cc1ccccc1 | >10 | – | – |
| Cc1c(CC(N)=O)c2c(OCC(=O)NN)cccc2n1Cc1ccccc1 | – | 1950 nM | 422 |
| Cc1c(CC(N)=O)c2cc(NCCC(=O)O)ccc2n1Cc1ccccc1 | – | – | 3370 |
| NC(=O)Cc1c(Br)n(Cc2ccccc2)c2cc(Cl)c(OCCCC(=O)O)cc12 | >10 | – | – |
| NC(=O)Cc1c(Br)n(Cc2ccccc2)c2ccc(OCCCP(=O)(O)O)cc12 [listing 2 of 3 here] | – | – | 165 |
| CCCc1c(CC(N)=O)c2cc(O)ccc2n1Cc1ccccc1 | – | – | 34000 |
| Cc1c(CC(N)=O)c2cc(OCc3ccccc3C(=O)O)ccc2n1Cc1ccccc1 | >10 | 720 nM | 147 |
| NC(=O)Cc1c(C2CC2)n(Cc2ccccc2)c2ccc(OCCCP(=O)(O)O)cc12 | – | 900 nM | 74 |
| CCc1c(CC(N)=O)c2cc(OCCCP(=O)(O)O)c(C)cc2n1Cc1ccccc1 | – | 202 nM | 15 |
| Cc1c(CC(N)=O)c2cc(O)ccc2n1Cc1ccccc1 | – | – | 1020 |

| SMILES | ED50 (Cavia porcellus) [µM] | Kb [1] | IC50 [2] [nM] |
| --- | --- | --- | --- |
| Cc1c(CC(N)=O)c2cc(Oc3cccc(C(=O)O)c3)ccc2n1Cc1ccccc1 | – | – | > 110000 |
| Cc1c(CC(N)=O)c2cc(NCCCC(=O)O)ccc2n1Cc1ccccc1 | – | – | 1830 |
| Cc1c(CC(N)=O)c2c(O)cccc2n1Cc1ccccc1 | – | – | 8280 |
| Cc1c(CC(=O)NN)c2cc(OCCCP(=O)([O-])[O-])ccc2n1Cc1ccccc1.[Na+].[Na+] | >10 | 1070 nM | 462 |
| CCc1c(C(N)=O)c2c(OCC(=O)O)cccc2n1Cc1cccc(Cl)c1 | – | – | 16800 |
| CSc1c(CC(N)=O)c2cc(OCCCC(=O)O)ccc2n1Cc1ccccc1 | >10 | 630 nM | 162 |
| Cc1cc(SCCCC(=O)O)cc2c(CC(N)=O)c(C)n(Cc3ccccc3)c12 | – | – | 51 |
| CSc1c(CC(N)=O)c2cc(OCCCC(N)=O)ccc2n1Cc1ccccc1 | – | – | 93 |
| NC(=O)Cc1cn(Cc2ccccc2)c2ccc(OCCCP(=O)(O)O)cc12 | – | – | 203 |
| NC(=O)Cc1cn(Cc2ccccc2)c2ccc(OCP(=O)(O)O)cc12 | – | – | 3680 |
| Cc1c(CC(N)=O)c2ccc(OCCCC(N)=O)cc2n1Cc1ccccc1 | – | – | 5830 |
| NC(=O)Cc1c(Br)n(Cc2ccccc2)c2cc(Cl)c(O)cc12 | – | – | 85 |
| NC(=O)Cc1cn(Cc2ccccc2)c2cccc(OCC(=O)O)c12 | – | – | 321 |
| CCc1c(CC(N)=O)c2cc(OCCCP(=O)(O)O)ccc2n1Cc1ccccc1 | >10 | – | – |
| CCCc1c(CC(N)=O)c2cc(OCCCP(=O)(O)O)ccc2n1Cc1ccccc1 | – | – | 6130 |
| Cc1c(CC(N)=O)c2c(O)cccc2n1Cc1cccc(Cl)c1 | – | – | 5880 |
| Cc1c(CC(N)=O)c2cc(OCCCP(=O)(O)O)ccc2n1Cc1ccccc1 | >10 | – | – |
| Cc1c(CC(N)=O)c2cc(OCCCP(=O)(O)O)ccc2n1Cc1ccccc1-c1ccccc1 | >10 | – | – |
| CCc1c(CC(N)=O)c2cc(SCCCP(=O)(O)O)ccc2n1Cc1ccccc1 | – | – | 58 |
| Cc1c(CCC(N)=O)c2cc(OCCCC(=O)O)ccc2n1Cc1ccccc1 | – | – | 6930 |
| NC(=O)Cc1c(Br)n(Cc2ccccc2)c2ccc(OCCCP(=O)(O)O)cc12 [listing 3 of 3 here] | – | 440 nM and 1550 nM | – |
